The values below come from patent EP3917907B1, “MODULATORS OF POTASSIUM ION CHANNELS AND USES THEREOF” (Universitá Degli Studi Di Salerno, priority 2019, dated 2020).

The nature of series [1]: Photostability (HPLC, solar simulator irradiation). The conditions noted are these: percentage of degradation after 6 h irradiation with solar simulator; 100 ppm in extracellular solution pH 7.4. Type of series: physicochemical. As for the experimental part: (§1) In order to study the solution stability and photostability of the potassium channel modulators object of the present invention, a stock solution of the proper analyte (1 mg/mL) in dimethylsulfoxide (DMSO) has been prepared. This solution has been then diluted to a concentration of 100 ppm using extracellular solution containing (in mM): 138 NaCl, 2 CaCl2, 5.4 KCl, 1 MgCl2, 10 glucose, and 10 HEPES, at pH 7.4, adjusted with NaOH. To measure solution stability, the diluted solutions have been maintained at ambient temperature for 6 h. To measure photostability, the diluted solutions have been irradiated for 6 h using a Oriel Sol3A Solar Simulator (Newport corporation, Irvine, CA, USA) with a 12x12 inches output beam. Aliquots of solution have been withdrawn after 6h and analyzed by HPLC using a Kinetex C18, 150 mm × 4.6 mm × 2.6 µm (Phenomenex, Bologna, Italy) as stationary phase and a mobile phase constituted by A: H2O/CH3CN (80:20) and B: CH3CN. Gradient elution has been performed from 20% to 90% of B in 7.50 minutes and from 90% to 20% of B in 1 minute. The pump flux has been set to 1.5 mL/min. Column has been thermostatted at 40°C during analysis. Results are espressed in Table 3 as percentage of degradation of the product calculated as ratio between the peak area of the analyte at time 0 (Pa0) and after 6h (Pa6) using the following formula: % degradation = (Pa0−Pa6)/Pa0 *100. [formula]

A further series addresses T1, Kv7.2 (Homo sapiens, UniProt O43526).
T1 construct: expressed in transfected cells; host or cells: CHO cells (ATCC CRL-9618), transient transfection, pcDNA3.1(+)
Briefly: Whole-cell patch-clamp on CHO cells transiently expressing Kv7.2. Conditions: CHO cells, mean±SEM, >1 activating, <1 inhibiting; for Idrug/Ictl at 0 mV: ratio of ramp-evoked Kv7.2 current amplitude in presence and absence of drug at 0 mV; for Idrug/Ictl at -40 mV: ratio of ramp-evoked Kv7.2 current amplitude in presence and absence of drug at -40 mV. Type of series: cell-based. The protocol:
According to the experimental protocol, these plasmids were expressed individually or in combination (in particular of Kv7.2 and Kv7.3), together with a plasmid-expressing enhanced green fluorescent protein (Clontech, Palo Alto, CA) used as a transfection marker. Total cDNA in the transfection mixture was kept at 4 µg. CHO cells were grown in 100-mm plastic Petri dishes in Dulbecco's modified Eagle's medium containing 10% fetal bovine serum, nonessential amino acids (0.1 mM), penicillin (50 U/ml), and streptomycin ([…]) in a humidified atmosphere at 37°C with 5% CO2. The cells were plated on glass coverslips coated with poly-L-lysine, and transfected one day after plating with the appropriate cDNA using Lipofectamine 2000 (Life Technologies), according to the manufacturer's protocol.
Currents from CHO cells were recorded at room temperature (20-22°C) 24 hours after trasfection using the whole-cell configuration of the patch-clamp technique, with glass micropipettes of 3-5 MΩ resistance. During the recording, constant perfusion of extracellular solution was maintained. The extracellular solution contained (in mM): 138 NaCl, 2 CaCl2, 5.4 KCl, 1 MgCl2, 10 glucose, and 10 HEPES, at pH 7.4, adjusted with NaOH. The pipette (intracellular) solution contained (in mM): 140 KCl, 2 MgCl2, 10 EGTA, 10 HEPES, 5 Mg^2+-ATP, at pH 7.3-7.4, adjusted with KOH. Currents were recorded using an Axopatch-200A amplifier, filtered at 5 kHz, and digitized using a DigiData 1440A (Molecular Devices). The pCLAMP software (version 10.2, Molecular Devices) was used for data acquisition and analysis. To evaluate the activity of exemplary compounds on Kv7.2 (see Table 1), as well as on Kv7.1, Kv7.2/7.3, Kv7.3 and Kv7.4 channels for selected compounds (see Table 2), the cells were clamped at -80 mV and currents were elicited by 3-s voltage ramps from -80 mV to +20 mV in the presence and absence of each compound. […] The effects of drugs were expressed as shift in the ramp-voltage (ΔV) calculated at 20% of the maximal current (Miceli et al, Proc Natl Acad Sci U S A. 2013, 110(11):4386-91). Curves were fitted using the following equation: y=max/(1+x/EC50)n, where x is the drug concentration, n is the Hill coefficient and max is the maximal value achieved, as previously described (Ambrosino et al, Br J Pharmacol. 2013, 168(6):1430-1444). Data analysis and fit were performed using Sigmaplot (version 12.3).
Ramp-evoked Kv7.2 currents were analyzed by measuring the currents at -40 mV (a membrane potential value close to the activation threshold) and at 0 mV (a membrane potential value at which Kv7.2 conductance is largely saturated). In particular, -40 mV represents the threshold potential for spike initiation and 0 mV represents instead the membrane potential value at which maximal conductance of the channel is achieved.
In Table 1, the effect of exemplary compounds of the invention is expressed as the ratio between current amplitude in the presence (Idrug) and absence (Ictl) of the drug at these two membrane voltages. […]

Series [2] is described as follows: Solution stability (HPLC, extracellular solution, ambient temperature). Type of series: physicochemical. The conditions noted are these: percentage of degradation after 6 h at ambient temperature; 100 ppm in extracellular solution pH 7.4. As for the experimental part: as §1

For the molecule `CC(C)(C)CNC(=O)Nc1ccc2c(c1)CCN2Cc1ccc(F)cc1` [1-(1-(4-fluorobenzyl)indolin-5-yl)-3-neopentylurea], in series [1], the Photostability result is recorded as “A (degradation lower than 20%)”. For the same molecule, at Kv7.2, the “Idrug/Ictl at 0 mV” value stood at 1.40±0.08 and the “Idrug/Ictl at -40 mV” value was determined as 3.31±0.61. Further, in series [2], the Solution stability entry was “A (degradation lower than 20%)”.

On to `CCCCCCC(=O)Nc1ccc(NCc2ccc(F)cc2)c(F)c1` [N-(3-fluoro-4-((4-fluorobenzyl)amino)phenyl)heptanamide], for which the Photostability result in series [1] is “A (degradation lower than 20%)”. On Kv7.2, the “Idrug/Ictl at 0 mV” value is given as 3.30±0.40 and the “Idrug/Ictl at -40 mV” value came out at 8.85±1.17. For the same molecule, in series [2], the Solution stability entry is listed as “A (degradation lower than 20%)”.

Consider `CC(=O)Nc1ccc2c(c1)CCN2Cc1ccc(F)cc1` [N-(1-(4-fluorobenzyl)indolin-5-yl)acetamide], for which, in series [1], the Photostability entry is listed as “A (degradation lower than 20%)”. For the same molecule, at Kv7.2, the “Idrug/Ictl at 0 mV” value came out at 1.64±0.20 and the “Idrug/Ictl at -40 mV” value is reported as 1.88±0.14. Also, in series [2], the Solution stability entry is on record as “A (degradation lower than 20%)”.

For the molecule `CC(C)[C@H]1CC[C@H](C)C[C@@H]1OC(=O)Nc1ccc2c(c1)CCN2Cc1ccc(F)cc1` [(1S,2R,5S)-2-isopropyl-5-methylcyclohexyl (1-(4-fluorobenzyl)indolin-5-yl)carbamate], the Photostability entry in series [1] is “B (20%< degradation<40%)”. Moreover, at Kv7.2, the “Idrug/Ictl at 0 mV” value worked out at 0.48±0.07 and the “Idrug/Ictl at -40 mV” value is recorded as 0.80±0.14. In series [2], the Solution stability result is reported as “A (degradation lower than 20%)”.

Consider `O=S(=O)(Nc1ccc2c(c1)CCN2Cc1ccc(F)c(F)c1)C1CCCCC1` [N-(1-(3,4-difluorobenzyl)indolin-5-yl)cyclohexanesulfonamide], for which, in series [1], the Photostability result was “C (degradation > 40%)”. Further, at Kv7.2, the “Idrug/Ictl at 0 mV” value came out at 2.11±0.18 and the “Idrug/Ictl at -40 mV” value is listed as 4.56±1.11. The Solution stability result in series [2] is given as “C (degradation > 40%)”.

`CCOC(=O)Nc1ccc2c(c1)CCN2Cc1ccc(F)cc1` [ethyl (1-(4-fluorobenzyl)indolin-5-yl)carbamate]: in series [1], the Photostability entry is reported as “C (degradation > 40%)”. In addition, at Kv7.2, the “Idrug/Ictl at 0 mV” value is 1.26±0.13 and the “Idrug/Ictl at -40 mV” value was found to be 2.01±0.58. In addition, in series [2], the Solution stability result is given as “A (degradation lower than 20%)”.

As to `O=S(=O)(Nc1ccc2c(c1)CCN2Cc1ccc(F)cc1)N1CCCCCC1` [N-(1-(4-fluorobenzyl)indolin-5-yl)azepane-1-sulfonamide], the Photostability entry in series [1] is “B (20%< degradation<40%)”. At Kv7.2, the “Idrug/Ictl at 0 mV” value is recorded as 0.98±0.11 and the “Idrug/Ictl at -40 mV” value was found to be 0.89±0.12. The Solution stability entry in series [2] was “B (20%< degradation<40%)”.

On to `O=C(CC1CCCCC1)Nc1ccc2c(c1)CCN2Cc1ccc(F)cc1` [2-cyclohexyl-N-(1-(4-fluorobenzyl)indolin-5-yl)acetamide], for which the Photostability entry in series [1] is recorded as “A (degradation lower than 20%)”. At Kv7.2, the “Idrug/Ictl at 0 mV” value stood at 1.71±0.12 and the “Idrug/Ictl at -40 mV” value is on record as 2.37±0.40. In addition, the Solution stability result in series [2] is on record as “A (degradation lower than 20%)”.

In the case of `O=S(=O)(CCC1CCCCC1)Nc1ccc2c(ccn2Cc2ccc(F)cc2)c1` [2-cyclohexyl-N-(1-(4-fluorobenzyl)-1H-indol-5-yl)ethane-1-sulfonamide], the Photostability entry in series [1] is reported as “A (degradation lower than 20%)”. On Kv7.2, the “Idrug/Ictl at 0 mV” value was 1.18±0.09 and the “Idrug/Ictl at -40 mV” value is listed as 1.64±0.10. Further, the Solution stability entry in series [2] was “A (degradation lower than 20%)”.

Consider `CC1CC(C)CN(S(=O)(=O)Nc2ccc3c(c2)CCN3Cc2ccc(F)cc2)C1` (stereo not shown) [N-(1-(4-fluorobenzyl)indolin-5-yl)-3,5-dimethylpiperidine-1-sulfonamide], for which the Photostability result in series [1] is listed as “B (20%< degradation<40%)”. For the same molecule, on Kv7.2, the “Idrug/Ictl at 0 mV” value is 1.87±0.22 and the “Idrug/Ictl at -40 mV” value is on record as 1.91±0.44. The Solution stability result in series [2] was “B (20%< degradation<40%)”.

Take `COc1ccc(CN2CCc3cc(NS(=O)(=O)C4CCCCC4)ccc32)cc1` [N-(1-(4-methoxybenzyl)indolin-5-yl)cyclohexanesulfonamide]: in series [1], the Photostability result is listed as “C (degradation > 40%)”. Moreover, at Kv7.2, the “Idrug/Ictl at 0 mV” value is 4.24±0.83 and the “Idrug/Ictl at -40 mV” value turned out to be 6.43±1.51. The Solution stability result in series [2] was “C (degradation > 40%)”.

As for `Nc1cc(NCc2ccc(C(F)(F)F)cc2)ccc1NS(=O)(=O)C1CCCCC1` [N-(2-amino-4-((4-(trifluoromethyl)benzyl)amino)phenyl)cyclohexanesulfonamide], the Photostability entry in series [1] was “C (degradation > 40%)”. At Kv7.2, the “Idrug/Ictl at 0 mV” value was 0.19±0.1 and the “Idrug/Ictl at -40 mV” value turned out to be 1.5±0.2. For the same molecule, the Solution stability result in series [2] is recorded as “C (degradation > 40%)”.

As to `O=S(=O)(Nc1ccc2c(c1)CCN2Cc1ccc(F)cc1)c1ccccc1` [N-(1-(4-fluorobenzyl)indolin-5-yl)benzenesulfonamide], the Photostability result in series [1] is on record as “B (20%< degradation<40%)”. For the same molecule, at Kv7.2, the “Idrug/Ictl at 0 mV” value worked out at 0.64±0.14 and the “Idrug/Ictl at -40 mV” value amounted to 1.15±0.28. Further, the Solution stability entry in series [2] was “A (degradation lower than 20%)”.

Take `CCCCCCC(=O)Nc1ccc(NCc2ccc(OC(F)(F)F)cc2)cc1N` [N-(2-amino-4-((4-(trifluoromethoxy)benzyl)amino)phenyl)heptanamide]: the Photostability result in series [1] was “B (20%< degradation<40%)”. Besides, on Kv7.2, the “Idrug/Ictl at 0 mV” value is on record as 2.05±0.56 and the “Idrug/Ictl at -40 mV” value worked out at 12.4±2.05. In addition, in series [2], the Solution stability entry was “A (degradation lower than 20%)”.

Regarding `CC1(C)[C@H]2CC[C@]1(CS(=O)(=O)Nc1ccc3c(c1)CCN3Cc1ccc(F)cc1)C(=O)C2` [1-((1R,4S)-7,7-dimethyl-2-oxobicyclo[2.2.1]heptan-1-yl)-N-(1-(4-fluorobenzyl)indolin-5-yl)methanesulfonamide], the Photostability result in series [1] is given as “C (degradation > 40%)”. Moreover, on Kv7.2, the “Idrug/Ictl at 0 mV” value was determined as 1.16±0.07 and the “Idrug/Ictl at -40 mV” value is recorded as 1.49±0.28. In series [2], the Solution stability entry was “C (degradation > 40%)”.

`O=C(Nc1ccc2c(c1)CCN2Cc1ccc(F)cc1)C1CCCCC1` [N-(1-(4-fluorobenzyl)indolin-5-yl)cyclohexanecarboxamide]: the Photostability result in series [1] is “B (20%< degradation<40%)”. Besides, at Kv7.2, the “Idrug/Ictl at 0 mV” value was found to be 0.66±0.07 and the “Idrug/Ictl at -40 mV” value stood at 1.32±0.21. Also, in series [2], the Solution stability entry was “A (degradation lower than 20%)”.
